{"source": "patent US20020082306A1", "about": "“Aqueous formulation of beta carotene” (Sanochemia Pharmazeutika Aktiengesellschaft, priority 1998, published 2002)", "origin": "cited, not measured here", "key": {"[1]": {"conditions": "in the presence of light and heat"}}}
{"smiles": "CC1=C(/C=C/C(C)=C/C=C/C(C)=C/C=C/C=C(C)/C=C/C=C(C)/C=C/C2=C(C)CCCC2(C)C)C(C)(C)CCC1", "note": "[Beta-carotene, beta-carotene]", "values": [{"measurement": "decomposition of dissolved beta-carotene by oxygen from ambient air", "setting": "[1]", "result": "easily decomposed"}, {"measurement": "solubility in cyclohexane", "setting": "cyclohexane", "result": "hardly soluble"}, {"measurement": "solubility in ethanol", "setting": "ethanol", "result": "hardly soluble"}, {"measurement": "solubility in ether", "setting": "ether", "result": "hardly soluble"}, {"measurement": "solubility in water", "setting": "water as well as the usually employed aqueous formulations", "result": "practically insoluble"}]}
